Source: patent publication US20230174484A1, “ANTAGONISTS OF GPR39 PROTEIN” (Oregon Health & Science University, priority 2020, published 2023)
pKi: −log10 of the molar value.

Biological target: T1, human GPR39 receptor (Homo sapiens, UniProt O43194)
T1 construct: PC3 Cells, Expressing the Endogenous Human GPR39 Receptor; endogenous in cells; host or cells: PC3 (human prostate adenocarcinoma) cells
T1 sequence (O43194 1-453): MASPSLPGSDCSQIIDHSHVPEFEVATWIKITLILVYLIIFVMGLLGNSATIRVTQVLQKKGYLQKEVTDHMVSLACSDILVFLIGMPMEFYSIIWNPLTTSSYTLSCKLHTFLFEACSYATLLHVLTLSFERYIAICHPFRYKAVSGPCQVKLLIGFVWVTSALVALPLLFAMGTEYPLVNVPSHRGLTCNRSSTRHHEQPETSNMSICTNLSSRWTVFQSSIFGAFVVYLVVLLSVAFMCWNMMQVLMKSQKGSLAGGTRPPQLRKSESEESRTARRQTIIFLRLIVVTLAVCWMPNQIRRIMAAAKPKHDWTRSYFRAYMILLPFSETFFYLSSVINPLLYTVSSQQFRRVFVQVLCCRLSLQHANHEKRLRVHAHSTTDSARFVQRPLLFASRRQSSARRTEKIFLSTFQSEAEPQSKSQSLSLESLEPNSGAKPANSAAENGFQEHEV
Experiment: Measurement of intracellular calcium response in PC3 cells (FLIPR), antagonism of the C3 agonist response
Assay type: cell-based
Details: functional pKi (modified Cheng-Prusoff); for pKi: inhibition of the C3 (TC-G 1008) response at EC90, 30 μM ZnCl2, read-out: fpKi activity
Experimental: Human prostate adenocarcinoma (PC3) cells endogenously expressing human GPR39 receptor were seeded into black walls clear-base 384-well plates at a density of 7,500 cells per well in DM EM (Low Glucose) supplemented with 10% heat-inactivated foetal bovine serum and 1% of Pen/Strep and grown overnight at 37° C., 5% CO2. After washing with assay buffer (20 mM HEPES, 137 mM NaCI, 5.4 mM KCI, 10 mM glucose, 0.8 mM MgSO4, 1.3 mM CaCl2, 0.3 mM Na2HPO4, 0.4 mM KH2PO4 4.2 mM NaHCO3, pH 7.4), cells were incubated with Calcium-6 probe (Molecular Devices) at 37° C. for 2h and then equilibrated at RT for 30 minutes on metal block. The fluorescence was measured in real time by Fluorometric Imaging Plate Reader (FLIPR TETRA, Molecular Devices) (excitation wavelength at 470-495 nm, emission wavelength at 515-575 nm).
Compounds of invention were serially diluted in neat DMSO at 1000 fold concentrations and plated into 384-well plates and then 200-fold diluted in assay buffer containing 150 uM ZnCl2 (30 μM final concentration) and […].
Fluorescence was monitored throughout the run assay. The peak of Ca2+stimulation (baseline subtracted) was expressed as percentage of the maximal inhibition of the EC90 C3 response and was plotted versus the concentration of test compound. Curve fitting and IC50 estimations are carried out using a four-parameter logistic model using XLfit Software.
The potency of compounds was reported as functional pKi (—Log10Ki) obtained using the modified Cheng-Prusoff relationship (Cheng, Y., Prusoff, W. H. 1973.)
fKi =IC50/(1+[L]/EC50) where IC50 is the concentration of antagonist required for 50% inhibition of the maximum response, [L] is the concentration of the agonist used (EC90) and EC50 is the concentration of agonist need to induced 50% of the maximum response (obtained in each experimental plate).
An fpKi less than 5.2 is reported as “+/±”. An fpKi ranging from 5.2 to 5.9 is reported as “+”. An fpKi from 6.0 to 6.5 is reported as “++”. An fpKi from 6.6 to 7.2 is reported as “+++”. An fpKi equal to or greater than 7.3 is reported as “++++”.

| Molecule | pKi | fpKi activity (inhibition of the C3 (TC-G 1008) response at EC90, 30 μM ZnCl2) |
| --- | --- | --- |
| O=C(Nc1ccc(C(=O)N2CCOC(C(F)(F)F)C2)c(N2CCCC2)c1)C1CC1 (centres unmarked) [Example 166, N-[3-pyrrolidin-1-yl-4-[2-(trifluoromethyl)morpholine-4-carbonyl]phenyl]cyclopropanecarboxamide] | 5.20 to 5.90 |  |
| CCCN1CCN(C(=O)c2ccc(NC(=O)C3CC3)cc2N2CCCC3(COC3)C2)CC1 [Example 6, N-(4-(4-propylpiperazine-1-carbonyl)-3-(2-oxa-6-azaspiro[3.5]nonan-6-yl)phenyl)cyclopropane carboxamide] | 5.20 to 5.90 |  |
| (2R or 2S) N-[6-(3,3-difluoropyrrolidin-1-yl)-5-(4-methyl-2-phenylpiperazine-1-carbonyl)pyridin-2-yl]cyclopropanecarboxamide [Example 148b] |  | + (An fpKi ranging from 5.2 to 5.9 is reported as “+”) |
| CC(C)C1CN(C)CCN1C(=O)c1ccc(NC(=O)C2CC2)cc1N1CCCCCC1 (centres unmarked) [Example 79, N-[3-(azepan-1-yl)-4-(4-methyl-2-propan-2-ylpiperazine-1-carbonyl)phenyl]Cyclopropanecarboxamide] | 5.20 to 5.90 |  |
| O=C(Nc1ccc(C(=O)N2CCN(c3nccc4ccsc34)CC2)c(N2CCCCCC2)c1)C1CC1 [Example 33, N-[3-(azepan-1-yl)-4-(4-thieno[2,3-c]pyridin-7-ylpiperazine-1-carbonyl)phenyl]Cyclopropanecarboxamide] | 5.20 to 5.90 |  |
| CN1CCN(C(=O)c2ccc(NC(=O)C3CC3)nc2N2CCCC2)C(c2ccccc2)C1 (single isomer, unassigned) [Example 149b, (2R or 2S) N-[5-(4-methyl-2-phenylpiperazine-1-carbonyl)-6-pyrrolidin-1-ylpyridin-2-yl] cyclopropanecarboxamide] | 5.20 to 5.90 |  |
| CNC(=O)N1CCN(C(=O)c2ccc(NC(=O)C3CC3)cc2N2CCCC2)C(c2ccccc2)C1 (centres unmarked) [Example 217, 4-[4-(cyclopropanecarbonylamino)-2-pyrrolidin-1-ylbenzoyl]-N-methyl-3-phenylpiperazine-1-carboxamide] | 6.00 to 6.50 |  |
| CCCN1CCN(C(=O)c2ccc(NC(=O)C3CC3)cc2N2CCCCC2)CC1 [Example 19, N-(3-(piperidin-1-yl)-4-(4-propylpiperazine-1-carbonyl)phenyl)cyclopropanecarboxamide] | 6.00 to 6.50 |  |
| O=C(Nc1ccc(C(=O)N2CCN3CCCC3C2)c(N2CCCCCC2)c1)C1CC1 (centres unmarked) [Example 40, N-[3-(azepan-1-yl)-4-{octahydropyrrolo[1,2-a]pyrazine-2-carbonyl}phenyl] Cyclopropanecarboxamide] | 6.00 to 6.50 |  |
| O=C(Nc1ccc(C(=O)N2CCN(Cc3ccccc3Cl)CC2)c(N2CCCCCC2)c1)C1CC1 [Example 31, N-(3-(azepan-1-yl)-4-(4-(2-chlorobenzyl)piperazine-1-carbonyl)phenyl) Cyclopropanecarboxamide] | 6.00 to 6.50 |  |
| CCCN1CCN(C(=O)c2ccc(NC(=O)C3CC3)cc2N2CC3(CCOCC3)C2)CC1 [Example 4, N-(4-(4-propylpiperazine-1-carbonyl)-3-(7-oxa-2-azaspiro[3.5]nonan-2-yl)phenyl)cyclopropane carboxamide] | 6.00 to 6.50 |  |
| CN1CCN(C(=O)c2ccc(NC(=O)C3CC3)cc2N2CCCC2)C(c2ccc(Cl)cc2)C1 (racemic) [Example 176, N-[4-[2-(4-chlorophenyl)-4-methylpiperazine-1-carbonyl]-3-pyrrolidin-1-ylphenyl]cyclopropanecarboxamide] | 6.00 to 6.50 |  |

The next lines start with results.

| pKi | Molecule | fpKi activity (inhibition of the C3 (TC-G 1008) response at EC90, 30 μM ZnCl2) |
| --- | --- | --- |
| 6.00 to 6.50 | O=C(NCc1ccccc1)c1ccc(NC(=O)C2CC2)cc1N1CCCCCC1 [Example 43, 2-(azepan-1-yl)-N-benzyl-4-cyclopropaneamidobenzamide] |  |
| 6.60 to 7.20 | CC1CC(C)CN(c2cc(NC(=O)C3CC3)ccc2C(=O)N2CCN(C)CC2c2ccccc2)C1 (single isomer, unassigned) [Example 68e, Anti N-[3-[3,5-dimethylpiperidin-1-yl]-4-(4-methyl-2-phenylpiperazine-1-carbonyl)phenyl]cyclopropanecarboxamide] |  |
| ≥ 7.30 | CN1CCN(C(=O)c2ccc(NC(=O)C3CC3)cc2N2CCCCCC2)C(c2ccsc2)C1 (single isomer, unassigned) [Example 70b, N-(3-(azepan-1-yl)-4-(4-methyl-2-(thiophen-3-yl)piperazine-1-carbonyl)phenyl)cyclopropane carboxamide] |  |
| 6.60 to 7.20 | CCCN1CCN(C(=O)c2ccc(NC(=O)C3CC3)cc2N2CCCCCC2)CC1 [Example 36, N-(3-(azepan-1-yl)-4-(4-propylpiperazine-1-carbonyl)phenyl)cyclopropanecarboxamide] |  |
| 6.60 to 7.20 | CN1CCN(C(=O)c2ccc(NC(=O)C3CC3)cc2-n2ccc(C(F)(F)F)n2)C(c2ccccc2)C1 (centres unmarked) [Example 206, N-[4-(4-methyl-2-phenylpiperazine-1-carbonyl)-3-[3-(trifluoromethyl)pyrazol-1-yl]phenyl]cyclopropanecarboxamide] |  |
| ≥ 7.30 | CN1CCN(C(=O)c2ccc(NC(=O)C3CC3)cc2N2CCCC2)C(c2ccccc2)C1 (single isomer, unassigned) [Example 62a, (2R or 2S) n-[4-(4-methyl-2-phenylpiperazine-1-carbonyl)-3-pyrrolidin-1-ylphenyl] Cyclopropanecarboxamide] |  |
| 6.60 to 7.20 | CN1CCN(C(=O)c2ccc(-c3nnc(C4CC4)[nH]3)cc2N2CCCC2)C(c2ccccc2)C1 (racemic) [Example 151c, [4-(5-cyclopropyl-4H-1,2,4-triazol-3-yl)-2-pyrrolidin-1-ylphenyl]-(4-methyl-2phenylpiperazin-1-yl)methanone] |  |
| 6.60 to 7.20 | CN1CCN(C(=O)c2ccc(NC(=O)C3CC3)cc2N2CCC3(COC3)C2)C(c2cccc(Cl)c2)C1 (centres unmarked) [Example 212, N-[4-[2-(3-chlorophenyl)-4-methylpiperazine-1-carbonyl]-3-(2-oxa-7-azaspiro[3.4]octan-7-yl)phenyl]cyclopropanecarboxamide] |  |
| 6.60 to 7.20 | CN1CCN(C(=O)c2ccc(NC(=O)C3CC3)nc2N2CC3CC3C2)C(c2ccccc2)C1 (racemic) [Example 145] |  |
| ≥ 7.30 | Cc1nnc(-c2ccc(C(=O)N3CCN(C)CC3c3ccccc3)c(N3CCC(C(F)(F)F)C3)c2)[nH]1 (single isomer, unassigned) [Example 177c, (2S, 3R) or (2R, 3S) or (2R, 3R) or (2S, 3S) (4-methyl-2-phenylpiperazin-1-yl)-[4-(5-methyl-4H-1,2,4-triazol-3-yl)-2-[3-(trifluoromethyl)pyrrolidin-1-yl]phenyl]methanone] |  |
| 6.60 to 7.20 | CCCN1CCN(C(=O)c2ccc(NC(=O)C3CC3)nc2N2CCCCCC2)CC1 [Example 108] |  |
| ≥ 7.30 | CN1CCN(C(=O)c2ccc(NC(=O)C3CC3)cc2N2CCC(F)(F)C2)C(c2ccccc2)C1 (single isomer, unassigned) [Example 202b, N-[3-(3,3-difluoropyrrolidin-1-yl)-4-(2R or 2S)-4-methyl-2-phenylpiperazine-1-carbonyl)phenyl]cyclopropanecarboxamide] |  |
| 6.60 to 7.20 | CN1CCN(C(=O)c2ccc(NC(=O)C3CC3)cc2N2CCCC2)C(c2ccccc2F)C1 (single isomer, unassigned) [Example 84a, N-[4-[2-(2-fluorophenyl)-4-methylpiperazine-1-carbonyl]-3-pyrrolidin-1-ylphenyl]cyclopropanecarboxamide] |  |
| 6.60 to 7.20 | CCCN1CCN(C(=O)c2ccc(NC(=O)C3CC3)cc2N2CCC(C)C2)CC1 (single isomer, unassigned) [Example 13a, N-(3-[(3R or 3S] 3-methylpyrrolidin-1-yl]-4-(4-propylpiperazine-1-carbonyl)phenyl) cyclopropanecarboxamide] |  |
